Assay results from patent publication US20070243262A1, “Stable S-nitrosothiol formulations” (priority 2005, published 2007).

What was measured:
[1] = GSNO API (powder) stability by HPLC; format: physicochemical; settings: for GSNO % w/w at 5° C. / GSNO % w/w at −20° C. / GSNO % w/w at −80° C.: GSNO powder, HPLC
Method: GSNO powder was tested for stability at various temperatures over a three-month period of time, and each formulation was tested for stability at various temperatures over a six month period of time. Stability was determined by HPLC analysis at various times throughout the test period.

[2] = cited from earlier work

- GSNO % w/w at 5° C. ([1]; 0 elapsed days): 92.7 % w/w
- GSNO % w/w at 5° C. ([1]; 14 elapsed days): 84.6 % w/w
- GSNO % w/w at 5° C. ([1]; 30 elapsed days): 89.2 % w/w
- GSNO % w/w at 5° C. ([1]; 90 elapsed days): 80.0 % w/w
- GSNO % w/w at −20° C. ([1]; 0 elapsed days): 92.7 % w/w
- GSNO % w/w at −20° C. ([1]; 14 elapsed days): 90.6 % w/w
- GSNO % w/w at −20° C. ([1]; 30 elapsed days): 91.1 % w/w
- GSNO % w/w at −20° C. ([1]; 90 elapsed days): 89.7 % w/w
- GSNO % w/w at −80° C. ([1]; 0 elapsed days): 92.7 % w/w
- GSNO % w/w at −80° C. ([1]; 30 elapsed days): 91.4 % w/w
- GSNO % w/w at −80° C. ([1]; 90 elapsed days): 91.9 % w/w
- stability of GSNO powder (in words) ([1]; temperatures above 0° C.): rapidly degrades
Structure (SMILES): N[C@@H](CCC(=O)N[C@@H](CSN=O)C(=O)NCC(=O)O)C(=O)O [GSNO, S-nitrosoglutathione]
- stability in aqueous solutions [2]: decomposing in hours
